Data on three compounds can be found in ChEMBL document CHEMBL5500342, “Rational molecular design converting fascaplysin derivatives to potent broad-spectrum inhibitors against bacterial pathogens via targeting FtsZ” (Eur J Med Chem, 2024).

Molecules are shown by their SMILES. Activity calls are given as the source filed them. The calls are words filed in the database; no cut-off is given here.

The test system of experiment [1] is Escherichia coli. Put plainly: Antibacterial activity against penicillin-susceptible Escherichia coli ATCC25922 assessed as log reduction in bacterial count measured after 8 hrs by time kill kinetics assay. In kind it is functional, organism-based.
The test system of experiment [2] is Escherichia coli. Put plainly: Drug resistance, ratio of MIC for penicillin-susceptible Escherichia coli ATCC25922 incubated for 18 to 24 hrs and measured after 4 passages to MIC for penicillin-susceptible Escherichia coli ATCC25922 measured after 18 to 24 hrs. In kind it is functional.
The subject of experiment [3] is Staphylococcus aureus. Put plainly: Inhibition of biofilm formation in methicillin-resistant Staphylococcus aureus ATCC43300 assessed as decrease in biofilm formation rate at 16 times of MIC incubated for 24 hrs by crystal violet staining based analysis relative to control. In kind it is functional. Set-up: scale not given: the % may be the effect or the level left.

The subject of experiment [4] is Escherichia coli. As to the kind of experiment: Antibacterial activity against penicillin-susceptible Escherichia coli ATCC25922 assessed as log reduction in bacterial count by time kill kinetics assay. Format: functional.
Experiment [5] concerns Escherichia coli. As to the kind of experiment: Antibacterial activity against penicillin-susceptible Escherichia coli ATCC25922 assessed as reduction in bacterial growth at 0.5 times of MIC incubated for 18 to 24 hrs and measured after 25 passages by drug resistance assay. In kind it is functional, organism-based.
Experiment [6] deals with Staphylococcus aureus. Put plainly: Inhibition of biofilm formation in methicillin-resistant Staphylococcus aureus ATCC43300 assessed as decrease in biofilm formation rate at 6.25 microg/ml incubated for 24 hrs by crystal violet staining based analysis relative to control. Format: functional. Set-up: scale not given: the % may be the effect or the level left. The note with it: dose 6.25 µg/ml.

Experiment [7] concerns Staphylococcus aureus. As to the kind of experiment: Inhibition of biofilm formation in methicillin-resistant Staphylococcus aureus ATCC43300 assessed as decrease in biofilm formation rate at higher concentration incubated for 24 hrs by crystal violet staining based analysis relative to control. Format: functional. More on the design: scale not given: the % may be the effect or the level left.

Experiment [8] relates to Escherichia coli. Put plainly: Antibacterial activity against penicillin-susceptible Escherichia coli ATCC25922 assessed as log reduction in bacterial count at 4 times of MIC measured after 1 hrs by time kill kinetics assay. Format: functional.
The subject of experiment [9] is Escherichia coli. Put plainly: Drug resistance, ratio of MIC for penicillin-susceptible Escherichia coli ATCC25922 incubated for 18 to 24 hrs and measured after 21 passages to MIC for penicillin-susceptible Escherichia coli ATCC25922 measured after 18 to 24 hrs. In kind it is functional.
Experiment [10] deals with Cell membrane. As to the kind of experiment: Disruption of cell membrane integrity in methicillin-resistant Staphylococcus aureus ATCC43300 assessed as cell wall disruption at 4 times of MIC incubated for 2 hrs by transmission electron microscopic analysis. Format: cell membranes.
Experiment [11] relates to Cell membrane. As to the kind of experiment: Disruption of cell membrane integrity in methicillin-resistant Staphylococcus aureus ATCC43300 assessed as leakage of intracellular contents at 4 times of MIC incubated for 2 hrs by transmission electron microscopic analysis. Format: cell membranes.
Experiment [12] deals with Staphylococcus aureus. Put plainly: Inhibition of biofilm formation in methicillin-resistant Staphylococcus aureus ATCC43300 assessed as decrease in biofilm formation rate at 4 times of MIC incubated for 24 hrs by crystal violet staining based analysis relative to control. Format: functional. More on the design: scale not given: the % may be the effect or the level left.

Regarding `O=C1c2ccccc2-[n+]2ccc3c([nH]c4ccc(-c5ccccc5F)cc43)c21.[Cl-]`, the result in the experiment on Escherichia coli [1] was inactive. In addition, in the experiment on Escherichia coli [2], the Ratio is recorded as 12. Also, the Activity in the experiment on Staphylococcus aureus [3] was 12%.

As to `O=C1c2ccccc2-[n+]2ccc3c([nH]c4ccc(-c5ccccc5Cl)cc43)c21.[Cl-]`, the Activity amounted to 1 log10CFU/ml in the experiment on Escherichia coli [4], 49% with Staphylococcus aureus [6] and 15% in the experiment on Staphylococcus aureus [7]. Besides, the result in the experiment on Escherichia coli [5] was Active.

In the case of `O=C1c2ccccc2-[n+]2ccc3c([nH]c4ccc(-c5ccccc5C(F)(F)F)cc43)c21.[Cl-]`, the Activity in the experiment with Escherichia coli [8] turned out to be 3 log10CFU/ml; with Staphylococcus aureus [12] it was 18%. Further, in the experiment on Escherichia coli [9], the Ratio turned out to be 12. For the same compound, the result with Cell membrane [10] and in the experiment with Cell membrane [11] was Active.
